Results: patent US12319655B2, “RAF kinase inhibitors and methods of use thereof” (Deciphera Pharmaceuticals, LLC, priority 2021, dated 2025)
pIC50: −log10 of the molar value. Where two headings read alike, the source gives them in different places.

How the values were obtained:
[1] = biological target: B-Raf kinase (SEQ. ID NO: 2) (Homo sapiens (Human), UniProt P15056); experiment: Biochemical Assay for B-Raf (1); conditions: Table J
In short: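 Continuous PK/LDH-coupled NADH oxidation assay, A340 read for 6 h at 30° C., with 0.13 nM B-Raf, 30.1 nM MEK substrate and 1 mM ATP in Tris pH 7.5, MgCl2, DTT, detergents, 1% DMSO. Rate taken from 4–5 h window; percent inhibition vs no-compound and known-inhibitor controls; four-parameter fit gives IC50.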

[2] = system: H2405 cells; experiment: H2405 Cell Proliferation Assay (1); format: cell-based; conditions: Homo sapiens, NCI-H2405
In short: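 Viability was read by resazurin reduction (ex 540 nm, em 600 nm; 5-6 h with 40 μL of 440 μM stock) after 67-72 h compound exposure at 37 °C.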

[3] = biological target: B-Raf (V600E) (SEQ. ID NO: 4) kinase (Homo sapiens (Human), UniProt P15056, V600E); experiment: Biochemical Assay for B-Raf (V600E) (1); conditions: Table J, BRAF V600E
In short: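 Coupled pyruvate kinase/lactate dehydrogenase assay: 0.03 nM B-Raf V600E, 30.1 nM MEK, 1 mM ATP, pH 7.5 Tris/MgCl2 buffer, 1% DMSO. NADH oxidation followed at 340 nm for 6 h at 30 °C; rate from 3–4 h converted to percent inhibition, IC50 by four-parameter fit.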

[4] = biological target: A-Raf kinase (SEQ. ID No: 1) (Homo sapiens (Human), UniProt P10398, Y301D/Y302D); experiment: Biochemical Assay for A-Raf (1); conditions: Table J
In short: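 A-Raf Y301D/Y302D at 5.55 nM phosphorylates 30.1 nM MEK with 1 mM ATP in pH 7.5 Tris buffer, 1% DMSO. Activity was read continuously as NADH oxidation at 340 nm in a pyruvate kinase/lactate dehydrogenase coupled system for 6 h at 30 °C. Rates from 4–5 h were converted to percent inhibition, and IC50 came from a four-parameter fit.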

[5] = assay version (1), read-out: BRAF (1) IC50
[6] = assay version (1), read-out: BRAF VE (1) IC50
[7] = assay version (1), read-out: ARAF (1) IC50
[8] = biochemical assay (1), read-out: BRAF (1)
[9] = biochemical assay (1), read-out: BRAF VE (1)
[10] = biochemical assay (1), read-out: ARAF (1)

Sequence of A-Raf kinase (SEQ. ID No: 1) (P10398 other isoform, or with tags, fused parts or gaps Y301D (already in the parent)/Y302D (already in the parent)): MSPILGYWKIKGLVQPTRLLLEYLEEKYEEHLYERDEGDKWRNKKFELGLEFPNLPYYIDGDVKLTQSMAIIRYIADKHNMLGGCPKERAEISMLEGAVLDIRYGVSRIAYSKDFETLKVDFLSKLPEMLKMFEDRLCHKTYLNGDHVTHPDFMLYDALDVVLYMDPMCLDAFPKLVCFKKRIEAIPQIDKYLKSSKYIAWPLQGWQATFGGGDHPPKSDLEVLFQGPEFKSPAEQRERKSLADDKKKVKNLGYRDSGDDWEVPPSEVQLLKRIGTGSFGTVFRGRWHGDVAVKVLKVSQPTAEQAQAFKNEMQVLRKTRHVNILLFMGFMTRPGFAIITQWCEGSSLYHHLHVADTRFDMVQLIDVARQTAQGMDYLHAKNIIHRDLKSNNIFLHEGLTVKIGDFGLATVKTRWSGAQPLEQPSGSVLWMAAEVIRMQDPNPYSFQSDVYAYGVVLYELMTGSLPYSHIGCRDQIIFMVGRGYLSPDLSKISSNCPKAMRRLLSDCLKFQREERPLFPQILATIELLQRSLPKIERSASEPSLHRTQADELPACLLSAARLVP
Sequence of B-Raf (V600E) (SEQ. ID NO: 4) kinase (P15056 416-766 V600E): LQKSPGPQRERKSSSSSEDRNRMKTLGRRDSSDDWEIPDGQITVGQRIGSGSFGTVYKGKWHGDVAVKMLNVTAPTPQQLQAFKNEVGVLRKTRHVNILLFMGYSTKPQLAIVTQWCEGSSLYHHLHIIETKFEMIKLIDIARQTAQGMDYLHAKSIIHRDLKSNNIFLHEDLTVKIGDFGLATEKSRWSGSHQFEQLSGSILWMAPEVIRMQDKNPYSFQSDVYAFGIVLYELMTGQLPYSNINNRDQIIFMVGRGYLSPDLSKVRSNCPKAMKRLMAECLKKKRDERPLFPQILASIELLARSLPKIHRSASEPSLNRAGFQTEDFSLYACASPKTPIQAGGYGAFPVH
Sequence of B-Raf kinase (SEQ. ID NO: 2) (P15056 416-766): as the sequence (P15056 416-766 V600E) above, with E185V counted along it

| Compound | pIC50 [1, 5] | pIC50 [2] | pIC50 [3, 6] | pIC50 [4, 7] | pIC50 [1, 8] | pIC50 [3, 9] | pIC50 [4, 10] |
| --- | --- | --- | --- | --- | --- | --- | --- |
| Cc1ccc(NC(=O)c2ccnc(C(C)(C)C#N)c2)cc1-c1ccnc(-c2ccnc(N)c2)n1 [Example 82] | ≥ 7.00 | 6.00 to 6.30 | ≥ 7.00 | 5.00 to 6.00 | – | – | – |
| Cc1ccc(NC(=O)[C@H]2CCO[C@H](C(C)C)C2)cc1-c1cc(-c2ccnc(NC(=O)C3CC3)c2)cnn1 [Example 389] | – | 5.00 to 6.00 | – | – | ≥ 7.00 | 6.30 to 7.00 | 5.00 to 6.00 |
| Cc1ncc(NC(=O)c2ccnc(C(C)(C)C#N)c2)cc1-c1cccc(-c2ncnn3cccc23)c1 [Example 385] | – | 5.00 to 6.00 | – | – | 6.30 to 7.00 | ≥ 7.00 | 5.00 to 6.00 |
| Cc1ccc(NC(=O)c2ccnc(C3(C#N)CC3)c2)cc1-c1cncc(-c2cc(NC(=O)C3CC3)ncn2)c1 [Example 395] | – | ≥ 7.00 | – | – | ≥ 7.00 | ≥ 7.00 | 6.00 to 6.30 |
| Cc1ccc(NC(=O)c2ccnc(C(F)(F)F)c2)cc1-c1cncc(-c2cc(NC(=O)C3CC3)ncn2)c1 [Example 397] | – | ≥ 7.00 | – | – | ≥ 7.00 | ≥ 7.00 | 5.00 to 6.00 |
| COC(=O)Nc1cc(-c2cc(-c3cc(NC(=O)c4ccnc(C(C)(C)F)c4)ccc3C)cc(OCCO)n2)ccn1 [Example 401] | – | 6.30 to 7.00 | – | – | ≥ 7.00 | ≥ 7.00 | 5.00 to 6.00 |
| Cc1ccc(NC(=O)c2cn(C(C)C)nc2C)cc1-c1cc(-c2ccnc(NC(=O)C3CC3)c2)cnn1 [Example 373] | – | 5.00 to 6.00 | – | – | ≥ 7.00 | 6.30 to 7.00 | 5.00 to 6.00 |
| CNC(=O)c1cc(-c2ccnc(-c3cc(NC(=O)CCC4(F)CC4)ccc3C)c2)ccn1 [Example 392] | – | 5.00 to 6.00 | – | – | 6.00 to 6.30 | 5.00 to 6.00 | 5.00 to 6.00 |
| CNC(=O)c1cc(-c2cncc(-c3cc(NC(=O)c4cnn(CC(F)(F)F)c4)ccc3C)c2)ncn1 [Example 382] | – | 5.00 to 6.00 | – | – | 6.30 to 7.00 | 6.30 to 7.00 | 5.00 to 6.00 |
| CCOc1ncc(-c2cc(NC(=O)c3ccnc(C(F)(F)F)c3)ccc2C)cc1-c1ccnc(NC(=O)C2CC2)c1 [Example 71] | 6.30 to 7.00 | 6.30 to 7.00 | ≥ 7.00 | 5.00 to 6.00 | – | – | – |
| CNC(=O)c1cc(-c2cnnc(-c3cc(NC(=O)CCC4(F)CC4)cnc3C)c2)ccn1 [Example 374] | – | 5.00 to 6.00 | – | – | 5.00 to 6.00 | 5.00 to 6.00 | 5.00 to 6.00 |
| CNC(=O)c1cc(-c2cc(-c3cc(NC(=O)c4ccnc(C(F)(F)F)c4)ccc3C)ncn2)ccn1 [Example 85] | ≥ 7.00 | 6.30 to 7.00 | ≥ 7.00 | 5.00 to 6.00 | – | – | – |
| CNC(=O)c1cc(-c2cc(-c3cc(NC(=O)c4ccnc(C(C)(C)C#N)c4)ccc3C)ccn2)ccn1 [Example 50] | ≥ 7.00 | ≥ 7.00 | ≥ 7.00 | 5.00 to 6.00 | – | – | – |
| CNC(=O)c1cc(-c2cncc(-c3cc(C(=O)Nc4cnn(C(C)C)c4)ccc3C)n2)ccn1 [Example 81] | 6.30 to 7.00 | 5.00 to 6.00 | ≥ 7.00 | 5.00 to 6.00 | – | – | – |
| COC(=O)Nc1cc(-c2cc(-c3cc(NC(=O)c4ccnc(C(C)(C)F)c4)c(F)cc3C)cc(C)n2)ccn1 [Example 386] | – | 6.00 to 6.30 | – | – | 6.30 to 7.00 | ≥ 7.00 | 5.00 to 6.00 |
| Cc1ccc(NC(=O)c2ccnc(C(F)(F)F)c2)cc1-c1ccnc(-c2ccnc(NC(=O)C3CC3)c2)c1 [Example 54] | ≥ 7.00 | ≥ 7.00 | ≥ 7.00 | 5.00 to 6.00 | – | – | – |

| Compound | pIC50 [1, 5] | pIC50 [2] | pIC50 [3, 6] | pIC50 [4, 7] | pIC50 [1, 8] | pIC50 [3, 9] | pIC50 [4, 10] |
| --- | --- | --- | --- | --- | --- | --- | --- |
| CNC(=O)c1cc(-c2ccnc(-c3cc(NC(=O)c4ccnc(C(C)(C)F)c4)ccc3C)c2)ccn1 [Example 378] | – | 6.30 to 7.00 | – | – | 6.30 to 7.00 | ≥ 7.00 | 5.00 to 6.00 |
| COC(=O)Nc1cc(-c2cccc(-c3cc(NC(=O)c4ccnc(C(C)(C)F)c4)cnc3C)c2)ccn1 [Example 402] | – | 6.00 to 6.30 | – | – | ≥ 7.00 | ≥ 7.00 | 5.00 to 6.00 |
| CNC(=O)c1cc(-c2cc(-c3cc(C(=O)Nc4ccnc(C(C)(C)C#N)c4)ccc3C)ccn2)ccn1 [Example 74] | 6.00 to 6.30 | 6.30 to 7.00 | ≥ 7.00 | 5.00 to 6.00 | – | – | – |
| COC(=O)Nc1cc(-c2cnnc(-c3cc(NC(=O)c4ccnc(C(C)(C)F)c4)ccc3C)c2)ccn1 [Example 375] | – | 6.30 to 7.00 | – | – | ≥ 7.00 | ≥ 7.00 | 5.00 to 6.00 |
| Cc1cc(F)c(NC(=O)c2ccnc(C3CC3)c2)cc1-c1cncc(-c2cc(NC(=O)C3CC3)ncn2)c1 [Example 398] | – | ≥ 7.00 | – | – | ≥ 7.00 | ≥ 7.00 | 5.00 to 6.00 |
| Cc1ccc(NC(=O)c2ccnc(C(C)(C)F)c2)cc1-c1cncc(-c2ccnc(C(N)=O)c2)c1 [Example 380] | – | 6.30 to 7.00 | – | – | ≥ 7.00 | ≥ 7.00 | 5.00 to 6.00 |
| CNC(=O)c1cc(-c2cncc(-c3cc(NC(=O)Cn4cc(C(C)C)nn4)ccc3C)c2)ncn1 [Example 383] | – | 5.00 to 6.00 | – | – | 6.30 to 7.00 | 5.00 to 6.00 | 5.00 to 6.00 |
| Cc1ccc(NC(=O)c2ccnc(C(C)(C)C#N)c2)cc1-c1ccnc(-c2ccnc(N)c2)c1 [Example 56] | ≥ 7.00 | 6.00 to 6.30 | ≥ 7.00 | 5.00 to 6.00 | – | – | – |
| Cc1ccc(NC(=O)c2ccnc(C(C)(C)F)c2)cc1-c1cc(-c2ccnc3[nH]ncc23)cnn1 [Example 400] | – | 5.00 to 6.00 | – | – | ≥ 7.00 | 6.30 to 7.00 | 5.00 to 6.00 |
| Cc1cc(F)c(NC(=O)c2ccnc(C(C)(C)F)c2)cc1-c1cncc(-c2ccnc(NC(=O)C3CC3)c2)c1 [Example 399] | – | ≥ 7.00 | – | – | ≥ 7.00 | ≥ 7.00 | 6.00 to 6.30 |
| CNC(=O)c1cc(-c2cncc(-c3cc(NC(=O)c4ccnc(C(C)(C)F)c4)ccc3C)c2)ncn1 [Example 379] | – | 6.30 to 7.00 | – | – | 6.30 to 7.00 | ≥ 7.00 | 5.00 to 6.00 |
| Cc1ccc(NC(=O)[C@H]2CCO[C@@H](C(C)C)C2)cc1-c1cc(-c2ccnc(NC(=O)C3CC3)c2)cnn1 [Example 388] | – | 5.00 to 6.00 | – | – | ≥ 7.00 | 6.30 to 7.00 | 5.00 to 6.00 |
| Cc1ccc(NC(=O)c2ccnc(C(F)(F)F)c2)cc1-c1cccc(-c2cc(NC(=O)C3CC3)ncn2)c1 [Example 80] | ≥ 7.00 | ≥ 7.00 | ≥ 7.00 | 5.00 to 6.00 | – | – | – |
| Cc1ccc(NC(=O)c2ccnc(C(C)(C)F)c2)cc1-c1cncc(-c2cc(NC(=O)C3CC3)ncn2)c1 [Example 394] | – | ≥ 7.00 | – | – | ≥ 7.00 | ≥ 7.00 | 6.30 to 7.00 |
| CNC(=O)c1cc(-c2cncc(-c3cc(NC(=O)c4ccnc(C(C)(C)C#N)c4)ccc3C)n2)ccn1 [Example 86] | 6.30 to 7.00 | ≥ 7.00 | ≥ 7.00 | 5.00 to 6.00 | – | – | – |
| CNC(=O)c1cc(-c2cncc(-c3cc(NC(=O)c4ccnc(C5(C#N)CC5)c4)ccc3C)c2)ncn1 [Example 393] | – | 6.30 to 7.00 | – | – | ≥ 7.00 | ≥ 7.00 | 5.00 to 6.00 |
